Laboratory results published in the NIST ThermoML archive (doi:10.1021/je050353j).

What was measured:
[1] = relative permittivity at zero frequency (dimensionless); xn = mol fraction of the nth substance listed; conditions: 298.15 K, Liquid, Parallel plate capacitor
[2] = refractive index (Na D-line) (dimensionless); conditions: 298.15 K; 100 kPa; Liquid; Standard Abbe refractometry

O [water] + OCCO
[1], x2 = 0
Conditions | relative permittivity at zero frequency
100 kPa | 78.39
50000 kPa | 80.18
100000 kPa | 81.88
150000 kPa | 83.47
200000 kPa | 85.01
250000 kPa | 86.48
300000 kPa | 87.94

OCC(O)CO [glycerol] + O
relative permittivity at zero frequency, [1]
Conditions | 100 kPa | 50000 kPa | 100000 kPa | 150000 kPa | 200000 kPa | 250000 kPa | 300000 kPa
x1 = 0.2 | 63.79 | 65.05 | 66.28 | 67.44 | 68.55 | 69.62 | 70.65
x1 = 0.4 | 55.26 | 56.37 | 57.44 | 58.46 | 59.43 | 60.37 | 61.28
x1 = 0.6 | 49.52 | 50.55 | 51.5 | 52.42 | 53.29 | 54.14 | 54.95
x1 = 0.8 | 45.48 | 46.43 | 47.33 | 48.18 | 48.99 | 49.77 | 50.53

OCCO [1,2-ethanediol] + O
relative permittivity at zero frequency, [1]
Conditions | 100 kPa | 50000 kPa | 100000 kPa | 150000 kPa | 200000 kPa | 250000 kPa | 300000 kPa
x1 = 0.2 | 65.26 | 66.72 | 68.04 | 69.3 | 70.47 | 71.6 | 72.68
x1 = 0.4 | 56.38 | 57.74 | 58.96 | 60.14 | 61.19 | 62.23 | 63.22
x1 = 0.6 | 49.73 | 50.99 | 52.14 | 53.21 | 54.2 | 55.15 | 56.06
x1 = 0.8 | 44.76 | 45.95 | 47.04 | 48.05 | 49 | 49.89 | 50.72

OCC(O)CO [glycerol]
Conditions | refractive index
[2] | 1.4722

OCCO [1,2-ethanediol]
Conditions | refractive index
[2] | 1.4304
